# Laboratory results as given in patent US20220073475A1, “5-MEMBERED HETEROARYL COMPOUNDS CONTAINING A HYDROXAMATE MOIETY AND THEIR USE” (UNIVERSITE DE LILLE, priority 2019, published 2022).
# Several values for one entry are separate records, joined by “and”; a condition that tells them apart may be missing. Equal values may be shown once.
# Tested on: TLM1 cells
# Test: X-ray radiation in combination with compound, propidium iodide dead cells, ratio of corrected AUC
# Type: cell-based, canine
# Details: TLM1
# Method: Canine melanoma TLM-1 cells are maintained in DMEM medium supplemented with GlutaMAX™, 10% fetal bovine serum, 1× Hepes and 1% penicillin-streptomycin.
# TLM-1 cells were seeded with the BioTek MicroFlo™ dispenser in μClear® black 384-well plates (Greiner) at the density of 20,000 cells/mL in 50 μL. Compounds for pre-treatment were added 2 h after the seeding, using an Echo 550 (Labcyte). The next day, cells were washed five times with 40 μL media without phenol red with a plate washer (Hydrospeed, Tecan). Cells were irradiated with 4, 6, 8, 12, 16, 20 and 24 Gray (Gy). […] This step was repeated every 72 h after radiation. Plates were incubated at 37° C. and 5% CO2. […] 4 images per well were collected. Images were analyzed with Columbus software (Perkin Elmer). In this system we used predefined building blocks to measure different parameters on nuclei detected. We applied a threshold based on propidium iodide intensity in nuclei of controls to select and count dead cells. By dividing the number of dead cells by the number of nuclei detected we obtained the percentage of dead cells. AUC were determined in one experiment with triplicate incubates on percentage of cells labelled with propidium iodide and were corrected by the percentage of cells labelled with propidium iodide at 0 Gy. Ratio of AUC corrected was determined as followed: Activity=(Area of the dose-concentration curve of cytotoxic agent combined with one concentration of compound corrected by the effect of the compound alone at 0Gy)/(Area of the dose-concentration curve of radiation alone corrected by the effect of the vehicle at 0Gy).
row,Compound,Potency of X-ray radiations in combination with compound (in words)
1,"O=C(C[C@@H](Cc1ccc2ccccc2c1)n1cc([C@@H]2CCCN2C(=O)c2ccc(F)c(F)c2)nn1)NO [Compound 93, (3R)-3-[4-[(2S)-1-(3,4-difluorobenzoyl)pyrrolidin-2-yl]triazol-1-yl]-4-(2-naphthyl)butanehydroxamic acid]",increase the potency

# Same assay, conditions: TLM1, compound at 30 μM
row,Compound,Activity: ratio of corrected AUC of X-ray radiation in combination with compound / corrected AUC of X-ray radiation alone
1,"O=C(C[C@@H](Cc1ccc2ccccc2c1)n1cc([C@@H]2CCCN2C(=O)c2ccc(F)c(F)c2)nn1)NO [Compound 93, (3R)-3-[4-[(2S)-1-(3,4-difluorobenzoyl)pyrrolidin-2-yl]triazol-1-yl]-4-(2-naphthyl)butanehydroxamic acid]",1.2

# Tested on: OPM2 cells
# Test: CFZ potency increase, ratio of CC50 of CFZ alone / with compound
# Type: cell-based, human
# Details: OPM2, compound at 7.5 μM (Table 5)
# Source text: Human multiple myeloma cells OPM2 (ACC 50, DSMZ) are maintained at 0.3-0.7 10^6 cells/mL in RPMI1640 medium supplemented with GlutaMAX™, 10% fetal bovine serum and 1% penicillin-streptomycin.
# We developed a cell-based, high content assay allowing the rapid detection and quantification of apoptotic cells. Caspase-3/7 activity was detected in real-time using the NucView™ 488 Caspase-3 substrate (Biotium), where the caspase-3/7 substrate peptide sequence DEVD is attached to a nucleic acid dye. The NucView™ 488 reagent crosses the plasma membrane to enter the cytoplasm, where the dye is unable to bind to DNA and remains non-fluorescent. Once the substrate has been cleaved by activated caspase-3/7 in apoptotic cells, the high-affinity DNA dye is released and migrates to the cell nucleus to stain the nucleus with a bright green fluorescence. All cell nuclei were also labeled with Hoechst 33342 (Ozyme).
# For OPM2, briefly, nanoliters of compound and cytotoxic agent in DMSO stock solutions were first transferred and combined in 384-microtiter well plate using an Echo555 liquid handler (Labcyte). The exact volume of each solution to be transferred was calculated to achieve subsequently the target concentration in the 70 μL volume incubate. Final DMSO content was maintained at 0.2%. Then, 70 μL of cells treated with 1 μM NucView™ 488 and 20 ng/mL Hoechst 33342 were distributed to the plates to obtain a final density of 12,000 cells per well. The microplates were incubated at 37° C. and 5% CO2 in an automated LiCONiC STR240 UB cell incubator, and images were acquired at various times at 405 nm and 488 nm with the high-resolution automated confocal microscope INCell 6000 (GE). Four fields per well were read with the 20× objective in a confocal mode. The BioCel workstation was managed by VWorks automation control software
# For all cells, Columbus software (Perkin) was used for image quantification and analysis. First, Hoechst 33342 staining was used for an automated detection of nuclei, in which the mean fluorescence intensity for NucView™ 488 was quantified. Inspection of control cells at initial time was used to set a threshold level of NucView™ 488 fluorescence to separate non apoptotic cells from apoptotic cells. Finally, for each well, the result was expressed as percentage of apoptotic cells in the total cell population. CC50 values were calculated from concentration-response curves by a nonlinear regression analysis at four parameters using Excel Fit or GraphPad Prim softwares.
# Activity=(% of apoptotic cells with cytotoxic agent in combination with compound of the invention)/(% of apoptotic cells with cytotoxic agent alone). • Ratio of CC50: The CC50 of the cytotoxic agent was calculated in absence and in presence of a compound of the invention.
# Activity=(CC50 of agent alone)/(CC50 of agent with compound). • Ratio of AUC. Activity=(Area of the dose-concentration curve of cytotoxic agent combined with one concentration of compound)/(Area of the dose-concentration curve of cytotoxic agent alone). (Lehar J. et al, 2008 (molecular systems biology 4:215)).
row,Compound,Activity: ratio (CC50 of CFZ alone)/(CC50 of CFZ in combination with compound of the invention)
1,"O=C(C[C@@H](Cc1ccc2ccccc2c1)n1cc([C@@H]2CCCN2C(=O)c2ccc(F)c(F)c2)nn1)NO [Compound 93, (3R)-3-[4-[(2S)-1-(3,4-difluorobenzoyl)pyrrolidin-2-yl]triazol-1-yl]-4-(2-naphthyl)butanehydroxamic acid]",2.3
2,"O=C(C[C@@H](Cc1ccc2c(c1)CCCC2)n1cc(CNC(=O)c2ccc(F)cc2)nn1)NO [Compound 165, (R)-4-fluoro-N-((1-(4-(hydroxyamino)-4-oxo-1-(5,6,7,8-tetrahydronaphthalen-2-yl)butan-2-yl)-1H-1,2,3-triazol-4-yl)methyl)benzamide]",1.9
3,"CC(NC(=O)c1ccc(F)cc1)c1cn([C@@H](CC(=O)NO)Cc2ccc3c(c2)CCCC3)nn1 (stereo partly drawn) [Compound 167, 4-fluoro-N-(1-(1-((R)-4-(hydroxyamino)-4-oxo-1-(5,6,7,8-tetrahydronaphthalen-2-yl)butan-2-yl)-1H-1,2,3-triazol-4-yl)ethyl)benzamide]",2.5
4,"O=C(C[C@@H](Cc1ccc2cccnc2c1)n1cc(CNC(=O)c2ccc(F)c(F)c2)nn1)NO [Compound 170, (R)-3,4-difluoro-N-((1-(4-(hydroxyamino)-4-oxo-1-(quinolin-7-yl)butan-2-yl)-1H-1,2,3-triazol-4-yl)methyl)benzamide]",1.5
5,"O=C(C[C@@H](Cc1ccc2c(c1)CCC(=O)N2)n1cc(CNC(=O)c2ccc(F)c(F)c2)nn1)NO [Compound 171, (R)-3,4-difluoro-N-((1-(4-(hydroxyamino)-4-oxo-1-(2-oxo-1,2,3,4-tetrahydroquinolin-6-yl)butan-2-yl)-1H-1,2,3-triazol-4-yl)methyl)benzamide]",1.2
6,"CC(NC(=O)c1ccc(F)cc1)c1cn([C@@H](CC(=O)NO)Cc2ccc3c(c2)C(C)(C)CCC3(C)C)nn1 (stereo partly drawn) [Compound 172, 4-fluoro-N-(1-(1-((R)-4-(hydroxyamino)-4-oxo-1-(5,5,8,8-tetramethyl-5,6,7,8-tetrahydronaphthalen-2-yl)butan-2-yl)-1H-1,2,3-triazol-4-yl)ethyl)benzamide]",3.9
7,"O=C(C[C@@H](Cc1ccc2sccc2c1)n1cc(CNC(=O)c2ccc(F)cc2)nn1)NO [Compound 173, (R)—N-((1-(1-(benzo[b]thiophen-5-yl)-4-(hydroxyamino)-4-oxobutan-2-yl)-1H-1,2,3-triazol-4-yl)methyl)-4-fluorobenzamide]",2.1
8,"O=C(C[C@@H](Cc1ccc2ccsc2c1)n1cc(CNC(=O)c2ccc(F)cc2)nn1)NO [Compound 174, (R)—N-((1-(1-(benzo[b]thiophen-6-yl)-4-(hydroxyamino)-4-oxobutan-2-yl)-1H-1,2,3-triazol-4-yl)methyl)-4-fluorobenzamide]",2.0 and 1.5
9,"O=C(C[C@@H](Cc1ccc2cc[nH]c2c1)n1cc(CNC(=O)c2ccc(F)cc2)nn1)NO [Compound 176, (R)-4-fluoro-N-((1-(4-(hydroxyamino)-1-(1H-indol-6-yl)-4-oxobutan-2-yl)-1H-1,2,3-triazol-4-yl)methyl)benzamide]",1.3
10,"Cn1ccc2cc(C[C@H](CC(=O)NO)n3cc(CNC(=O)c4ccc(F)cc4)nn3)ccc21 [Compound 177, (R)-4-fluoro-N-((1-(4-(hydroxyamino)-1-(1-methyl-1H-indol-5-yl)-4-oxobutan-2-yl)-1H-1,2,3-triazol-4-yl)methyl)benzamide]",1.7
11,"O=C(C[C@@H](Cc1ccc2ncsc2c1)n1cc(CNC(=O)c2ccc(F)c(F)c2)nn1)NO [Compound 178, (R)—N-((1-(1-(benzo[d]thiazol-6-yl)-4-(hydroxyamino)-4-oxobutan-2-yl)-1H-1,2,3-triazol-4-yl)methyl)-3,4-difluorobenzamide]",1.3
12,"O=C(C[C@@H](Cc1csc2ccccc12)n1cc(CNC(=O)c2ccc(F)c(F)c2)nn1)NO [Compound 179, (R)—N-((1-(1-(benzo[b]thiophen-3-yl)-4-(hydroxyamino)-4-oxobutan-2-yl)-1H-1,2,3-triazol-4-yl)methyl)-3,4-difluorobenzamide]",1.6
13,"O=C(C[C@@H](Cc1csc2ccccc12)n1cc(CNC(=O)c2ccc(F)cc2)nn1)NO [Compound 180, (R)—N-((1-(1-(benzo[b]thiophen-3-yl)-4-(hydroxyamino)-4-oxobutan-2-yl)-1H-1,2,3-triazol-4-yl)methyl)-4-fluorobenzamide]",1.8
14,"CC(NC(=O)c1ccc(F)cc1)c1cn([C@@H](CC(=O)NO)Cc2csc3ccccc23)nn1 (stereo partly drawn) [Compound 181, N-(1-(1-((R)-1-(benzo[b]thiophen-3-yl)-4-(hydroxyamino)-4-oxobutan-2-yl)-1H-1,2,3-triazol-4-yl)ethyl)-4-fluorobenzamide]",1.9
15,"O=C(C[C@@H](Cc1cc2ccccc2s1)n1cc(CNC(=O)c2ccc(F)cc2)nn1)NO [Compound 182, (S)—N-((1-(1-(benzo[b]thiophen-2-yl)-4-(hydroxyamino)-4-oxobutan-2-yl)-1H-1,2,3-triazol-4-yl)methyl)-4-fluorobenzamide]",2.7
16,"O=C(C[C@@H](Cc1ccc2c(c1)OCCO2)n1cc(CNC(=O)c2ccc(F)c(F)c2)nn1)NO [Compound 183, (R)—N-((1-(1-(2,3-dihydrobenzo[b][1,4]dioxin-6-yl)-4-(hydroxyamino)-4-oxobutan-2-yl)-1H-1,2,3-triazol-4-yl)methyl)-3,4-difluorobenzamide]",1.2
17,"O=C(C[C@@H](Cc1ccc2ccccc2c1)n1cc(CNC(=O)c2cccc(F)c2)nn1)NO [Compound 184, (R)-3-fluoro-N-((1-(4-(hydroxyamino)-1-(naphthalen-2-yl)-4-oxobutan-2-yl)-1H-1,2,3-triazol-4-yl)methyl)benzamide]",2.4
18,"CN(Cc1cn([C@@H](CC(=O)NO)Cc2ccc3ccccc3c2)nn1)C(=O)c1ccc(F)cc1 [Compound 185, (R)-4-fluoro-N-((1-(4-(hydroxyamino)-1-(naphthalen-2-yl)-4-oxobutan-2-yl)-1H-1,2,3-triazol-4-yl)methyl)-N-methylbenzamide]",1.8

# Same assay, conditions: OPM2, compound at a concentration of 3.7 μM (Table 5, footnote b)
row,Compound,Activity: ratio (CC50 of CFZ alone)/(CC50 of CFZ in combination with compound of the invention)
1,"CN(Cc1cn([C@@H](CC(=O)NO)Cc2ccc3c(c2)CCCC3)nn1)C(=O)c1ccc(F)cc1 [Compound 166, (R)-4-fluoro-N-((1-(4-(hydroxyamino)-4-oxo-1-(5,6,7,8-tetrahydronaphthalen-2-yl)butan-2-yl)-1H-1,2,3-triazol-4-yl)methyl)-N-methylbenzamide]",2.1
